According to patent US11918000B2, “Methods for inducing resistance to virus in a plant, priming a plant to resist viruses, decreasing virus accumulation, or increasing PR1 expression in a plant” (Academia Sinica, priority 2019, dated 2024):

Columns and labels:
[1] = system: TMV tagged with green fluorescence protein (TMV-GFP); experiment: TMV-GFP infection of Nicotiana benthamiana (fluorescent infection foci); type: in vivo; conditions: N. benthamiana
Description: (§1) Plants were grown in a growth chamber with 10,000 lux fluorescent light and a 16-h light/8-h dark cycle. N. glutinosa (6-7 weeks old, 8-10 leaf stage), N. benthamiana (3-4 weeks old, 5-6 leaf stage) and Brassica juncea (14 days old, 2-3 true-leaf stage) were used for treatment and/or inoculation. For virus inoculation, plants were dusted with 600-grit silicon carbide powder (Sigma-Aldrich, St. Louis, Mo., USA) and mechanically inoculated. Virus inoculum was prepared with 100 ml of 0.1 M potassium phosphate (KP) buffer (61.5% of 0.1 M K2HPO4 and 38.5% 0.1 M KH2PO4, pH 7.0) mixed with 0.1 g of lyophilized leaves of plants infected with Tobacco mosaic virus (TMV) (FIGS. 1, 4A-E, 8 and 9; FIG. 10, 11, 12, 14 and 15; Table 1), or TMV tagged with green fluorescence protein (TMV-GFP) (FIG. 5) (Rabindran, S., and Dawson, W.O. 2001. Assessment of recombinants that arise from the use of a TMV-based transient expression vector. Virology 284:182-189). Different concentrations of TMV purified particle inoculum was diluted with 0.1 M potassium phosphate (KP) buffer (61.5% of 0.1 M K2HPO4 and 38.5% 0.1 M KH2PO4, pH 7.0) (FIGS. 2, 3, and 4F; Table 2). Turnip mosaic virus (TuMV) inoculum was prepared with 0.1 g of fresh leaves from plants infected with TuMV ground with 10 ml of 0.1 M sodium phosphate buffer (0.1 M NaH2PO4, 0.1 M Na2HPO4 and 0.5% Na2SO3, pH 7.4). The severity of TMV or TuMV symptom of infected plants were scored based on external phenotype (FIG. 15). Transmission electron microscope (Philips Electronic Instruments, Mahwah, N.J.) was used to examine TMV particles of different inoculums.
(§2) Whole plants were sprayed with 0.4 ml H2O, VB, culture filtrate derived from microorganism or 5 mM salicylic acid (SA, Sigma-Aldrich) for total of three times with a 24-h interval between each spray. Twenty-four hours after the final treatment, plants were rubbed with the virus inoculum.
Photographs of TMV-GFP fluorescent infection foci in N. benthamiana leaves were taken under UV light at 5 and 7 days post-inoculation (dpi), and the level of fluorescence as well as the areas of fluorescent infection sites in each leaf were measured by using ImageJ v1.47. All imaging was conducted under identical illumination and exposure conditions to allow for comparisons. Mean values of areas of all infection foci per treatment were calculated.
To analyze which virus infection steps are affected in F8-culture filtrate-treated plants, we used TMV tagged with green fluorescence protein (GFP) to inoculate N. benthamiana and monitor the infection of TMV. […] To compare TMV-GFP accumulation in each foci, we used a puncher to collect GFP foci under UV light and used qRT-PCR to quantify the TMV-GFP expression. […]

[2] = system: Tobacco mosaic virus (TMV); experiment: Infection rate of TMV on Nicotiana benthamiana, inoculum from lyophilized infected leaves, RT-PCR detection; type: in vivo; conditions: N. benthamiana
Description: as §1, §2
Besides using N. glutinosa for our initial screening, we also used N. benthamiana, a host that is highly susceptible to TMV, for resistance assay. N. benthamiana was pretreated with H2O, SA, VB, F2- or F8-culture filtrate as for pretreatment of N. glutinosa. All treated plants were inoculated with TMV inoculum made from lyophilized leaves of TMV infected N. benthamiana. […] With RT-PCR to detect TMV on all treated plants, the infection rate was much reduced with F8-culture filtrate than H2O, SA, VB or F2-culture filtrate pretreatment (Table 1). In our repeat experiments, the infection rate of TMV-inoculated plants with F8-culture filtrate pretreatment even decreased to 0% (Table 1). […] We prepared at least 7 different batches of F8-culture filtrate, and the ability to induce resistance against TMV was consistent between different batches (Table 1).

[3] = system: Tobacco mosaic virus (TMV); experiment: Symptoms / disease index induced by TMV in Nicotiana benthamiana; type: in vivo; conditions: N. benthamiana; systemic protection test; 7 dpi
Description: FIG. 15A and FIG. 15B show disease index of N. benthamiana inoculated with TMV and Brassica juncea inoculated with TuMV. (FIG. 15A) N. benthamiana were inoculated with TMV. The disease index was classified into 4 levels according to the degree of yellowing, stunting and wilting at 7 dpi. (FIG. 15B) Brassica juncea were inoculated with TuMV. The disease index was classified into 3 levels according to the degree of leaf mosaic and stunting at 13 dpi.
Plants were grown in a growth chamber with 10,000 lux fluorescent light and a 16-h light/8-h dark cycle. N. glutinosa (6-7 weeks old, 8-10 leaf stage), N. benthamiana (3-4 weeks old, 5-6 leaf stage) and Brassica juncea (14 days old, 2-3 true-leaf stage) were used for treatment and/or inoculation. […] Virus inoculum was prepared with 100 ml of 0.1 M potassium phosphate (KP) buffer (61.5% of 0.1 M K2HPO4 and 38.5% 0.1 M KH2PO4, pH 7.0) mixed with 0.1 g of lyophilized leaves of plants infected with Tobacco mosaic virus (TMV) (FIGS. 1, 4A-E, 8 and 9; FIG. 10, 11, 12, 14 and 15; Table 1), or TMV tagged with green fluorescence protein (TMV-GFP) (FIG. 5) (Rabindran, S., and Dawson, W.O. 2001. Assessment of recombinants that arise from the use of a TMV-based transient expression vector. Virology 284:182-189). […] The severity of TMV or TuMV symptom of infected plants were scored based on external phenotype (FIG. 15). […]

PR-1 = experiment: Relative expression of PR-1 by qRT-PCR; type: in vivo, Nicotiana benthamiana; conditions: N. benthamiana, no TMV, 24 hpt
Text: Total RNA was isolated by use of Trizol (Invitrogen, Bethesda, Md.) according to the manufacturer's instruction. Residual DNA was removed by using the TURBO DNA-free kit (Ambion, Austin Tex., USA). cDNA was synthesized by using the PrimeScript RT-PCR Kit (Takara Bio, Shiga, Japan). Quantitative RT-PCR (qRT-PCR) involved the SYBR protocol (Life Technologies) and the ABI 7100 real-time PCR system (Applied Biosystems, Carlsbad, Calif.). For quantitative analysis, actin was used as an input control. Relative fold change in mRNA expression was determined by calculating 2^−ΔΔCt. The sequences of primers used are in Table S1.
We collected both the local and upper un-treated (systemic) leaves at 24 h post-treatment (hpt) to analyze the expression of the PR-1 gene (a SAR marker gene) (Zheng et al., 2015). PR-1 gene expression was detected in SA- and VB- but not F8-culture filtrate-treated local leaves (FIG. 4C). […] In addition, we collected leaves from plants with whole plants pretreated with H2O, SA, VB or F8-culture filtrate. Consistently, PR-1 gene induction was detected in leaves of whole plants pretreated with SA and VB but not whole plants pretreated with F8-culture filtrate at 24 hpt (FIG. 4E).
To analyze how F8-polysaccharide induces plant viral resistance, we measured the expression of SA-, JA- and ET-responsive immune marker genes in H2O- and F8-polysaccharide-treated plants (Cortes-Barco et al., 2010; Milling et al., 2011; Zhu et al., 2014). We first confirmed the induction of marker genes induced by SA (PR-1 and PR-2), JA (PDF-1.2 and PR-4), and ET (Osm and EREBP) in N. benthamiana (FIG. 14A). Plants were pretreated with H2O and F8-polysacccharide for total of three times with a 24-h interval between each spray as described previously, then leaves were collected from one set of individual plants at 0, 12, 24, 36, 48, 72, and 96 hpt. […] We detected the accumulation of TMV and the expression of SA-, JA- and ET-responsive immune marker genes (FIG. 9A-D, FIGS. S5C and D). […]

[4] = system: Tobacco mosaic virus (TMV) particle; experiment: Infection rate of purified TMV particle on Nicotiana benthamiana; type: in vivo; conditions: Table 2, N. benthamiana, 7 dpi, RT-PCR, SA 5 mM
Description: as §1
Leaves of TMV-infected N. benthamiana were harvested approximately 5 days after inoculation. The initial purification of TMV virus particles followed the protocol as described by Gooding and Hebert (1967) with modifications. Briefly, polyethylene glycol with molecular weight 8000 (PEG 8000) (Sigma-Aldrich) was used instead of PEG 6000. In addition, the semi-purified preparation was submitted to linear density sucrose gradient (0-18%), and ultracentrifuged at 228,000×g for 1.5 h. The light scattering region was collected and diluted with 100 ml of suspension buffer (35 mM Na2HPO4, 15 mM NaH2PO4 and 0.05% 2-mercaptoethanol, pH7.2). NaCl (0.4 g) and PEG 8000 (4 g) were added and stirred for at least 1 h on ice, then centrifuged at 9000×g for 15 min at 4° C. The pellets were re-suspended in 1 ml of suspension buffer. The concentration of the purified TMV suspension was determined (A260 nm=[…] for 1 mg/mL of TMV) with a Nanodrop (ND-1000, Thermo Fisher Scientific, MA, USA).
as §2
In addition to using inoculum made from lyophilized leaves of TMV infected N. benthamiana, we also used different concentrations (1 μg/ml, 10 μg/ml and 50 μg/ml) of purified TMV particles as inoculum to inoculate N. glutinosa and N. benthamiana pretreated with H2O, SA, VB, or F8-culture filtrate (FIG. 2, FIG. 3). […] The infection rate of TMV on N. benthamiana was also detected by use of qRT-PCR (Table 2).

[5] = Table 1, lyophilized leaf inoculum, 7 dpi, RT-PCR, SA 5 mM
[6] = Table S3, fractions derived from F8-culture filtrate, 7 dpi, RT-PCR

O=C(O)c1ccccc1O [SA, salicylic acid]
number of initial TMV-GFP infection foci ([1]; 5 dpi): reduced
mean TMV accumulation per foci ([1]; qRT-PCR of punched GFP foci): similar
infection rate of TMV-GFP: number of plants exhibiting green fluorescence under UV illumination to total TMV-GFP inoculated plants, Exp. 1 ([1]; Table S2, 7 dpi, SA 5 mM): 5/5
infection rate of TMV-GFP: number of plants exhibiting green fluorescence under UV illumination to total TMV-GFP inoculated plants, Exp. 2 ([1]; Table S2, 7 dpi, SA 5 mM): 4/6
infection rate of TMV-inoculated plants ([2]; pretreatment before TMV inoculation): 100%
infection rate of TMV: number of plants detected with TMV to total TMV inoculated plants, Exp. 2 [2, 5]: 5/5
infection rate of TMV: number of plants detected with TMV to total TMV inoculated plants, Exp. 3 [2, 5]: 4/5
infection rate of TMV: number of plants detected with TMV to total TMV inoculated plants, Exp. 4 [2, 5]: 5/5
infection rate of TMV: number of plants detected with TMV to total TMV inoculated plants, Exp. 5 [2, 5]: 5/5
infection rate of TMV: number of plants detected with TMV to total TMV inoculated plants, Exp. 6 [2, 5]: 5/5
infection rate of TMV: number of plants detected with TMV to total TMV inoculated plants, Exp. 7 [2, 5]: 5/5
infection rate of TMV: number of plants detected with TMV to total TMV inoculated plants, Exp. 8 [2, 5]: 5/5
infection rate of TMV: number of plants detected with TMV to total TMV inoculated plants, Exp. 1 ([2]; Table 1, three sprays at 24-h intervals, inoculum from lyophilized TMV-inoculated leaves, 7 dpi, RT-PCR, SA 5 mM): 5/5
infection rate of TMV: number of plants detected with TMV to total TMV inoculated plants, Total ([2]; Table 1, sum of Exp. 1-8, 7 dpi, RT-PCR): 39/40
infection rate of TMV: number of plants detected with TMV to total TMV inoculated plants, Exp. 1 [2, 6]: 5/5
infection rate of TMV: number of plants detected with TMV to total TMV inoculated plants, Exp. 2 [2, 6]: 5/5
infection rate of TMV: number of plants detected with TMV to total TMV inoculated plants, Exp. 3 [2, 6]: 5/5
infection rate of TMV: number of plants detected with TMV to total TMV inoculated plants, Total ([2]; Table S3, sum of Exp. 1-3, 7 dpi, RT-PCR): 15/15
viral symptoms with pretreatment of only local (lower) leaves and TMV inoculation of upper untreated leaves [3]: severe viral symptoms
PR-1 gene expression in treated local leaves (PR-1; local leaves pretreated): detected
PR-1 gene expression on systemic (upper untreated) leaves (PR-1; local leaves pretreated): increased PR-1 gene expression
PR-1 gene induction in leaves of whole plants pretreated (PR-1; whole plant pretreated): detected
infection rate of TMV particle: number of plants detected with TMV to total inoculated plants, Exp. 1, 1 μg/ml ([4]; TMV particle 1 μg/ml): 6/6
infection rate of TMV particle: number of plants detected with TMV to total inoculated plants, Exp. 2, 1 μg/ml ([4]; TMV particle 1 μg/ml): 6/6
infection rate of TMV particle: number of plants detected with TMV to total inoculated plants, Exp. 3, 1 μg/ml ([4]; TMV particle 1 μg/ml): 15/15
infection rate of TMV particle: number of plants detected with TMV to total inoculated plants, Exp. 1, 10 μg/ml ([4]; TMV particle 10 μg/ml): 6/6
infection rate of TMV particle: number of plants detected with TMV to total inoculated plants, Exp. 1, 50 μg/ml ([4]; TMV particle 50 μg/ml): 6/6
